According to patent publication US20030138399A1, “Anti-inflammatory therapy for inflammatory mediated infection” (priority 1999, published 2003):
Read-outs that look alike come from different tables or passages of the source.

Experiments:
[1] = system: HIV virus that expresses luciferase when replicated; test: FIG. 19: HIV replication in cultured infected cells, luciferase by luminometer; type: cell-based
Procedure: Cultured cells infected with HIV were treated with 5-ASA or AZT in the amounts indicated. Luciferase expression, which indicates the amount of HIV replication, was quantified using a luminometer. The data shown represent nine separate studies.
(§1) Using a culture of cells that are infected with an HIV virus that expresses luciferase when replicated, but without any treatment as a control, Asacol at the two lowest doses (30 and 300 micrograms) is able to inhibit HIV replication by approximately 20%. At the 3000 microgram dose, the amount of suppression is higher, but this is due, in part, to cellular toxicity of the drug at this dose (approximately 30% cell death vs. 13-15% cell death for 30 and 300 microgram doses; AZT produces approximately 16% cell death at a dose of 5 μg). […] While the anti-inflammatory activity of Asacol is not as potent at suppressing HIV replication as is AZT, the activity is nonetheless statistically significant.

[2] = system: HIV pNLlucΔBgl pseudotyped with M-tropic JRFL envelope; test: HIV replication (luciferase expression) in activated PBMCs, M-tropic pseudotyped virus; type: cell-based; details: 4 days in culture
Procedure: (§2) The PBMCs comprise a heterogeneous population of CD4 and CD8 cells with chemokines and cytokines present in the medium. […] Replication incompetent HIV pNLlucΔBgl pseudotyped with either M-tropic JRFL or T-tropic LAI envelope was used for the infection. Luciferase expression was used to assess the degree of HIV replication after 4 days in culture. Medication treated cultures were compared with samples receiving no drug. Cells were analyzed by flow cytometry for cell death after 4 days by staining with 7-AAD.

[3] = system: HIV pNLlucΔBgl pseudotyped with T-tropic LAI envelope; test: HIV replication (luciferase expression) in activated PBMCs, T-tropic pseudotyped virus; type: cell-based; details: 4 days in culture
Procedure: as §2

[4] = system: cultured cells infected with HIV; test: FIG. 19 study: cell death (cellular toxicity of the drug); type: cell-based
Text: as §1

activated PBMCs = details: 4 days
Procedure: as §2

| Compound | amount of suppression of HIV replication ([1]; 3000 microgram dose, compared with lower doses) | inhibition of HIV replication ([1]; two lowest doses (30 and 300 micrograms)) | % Change from untreated culture (luciferase expression), M-tropic HIV ([2]; 3 μM) | % Change from untreated culture (luciferase expression), M-tropic HIV ([2]; 30 μM) | % Change from untreated culture (luciferase expression), M-tropic HIV ([2]; 300 μM) | % Change from untreated culture (luciferase expression), M-tropic HIV ([2]; 3000 μM, *P < .05) | % Change from untreated culture (luciferase expression), T-Tropic HIV ([3]; 2 μM) | % Change from untreated culture (luciferase expression), T-Tropic HIV ([3]; 20 μM) | % Change from untreated culture (luciferase expression), T-Tropic HIV ([3]; 200 μM) | cell death ([4]; 30 and 300 microgram doses) | cell death ([4]; 3000 microgram dose) | % death (activated PBMCs; 30 μM) | % death (activated PBMCs; 300 μM) | % death (activated PBMCs; 3000 μM) | % Change from untreated culture (luciferase expression), M-tropic HIV ([2]; 5 μM, *P < .05) | % Change from untreated culture (luciferase expression), T-Tropic HIV ([3]; 5 μM, *P < .05) | cell death ([4]; dose of 5 μg) |
| --- | --- | --- | --- | --- | --- | --- | --- | --- | --- | --- | --- | --- | --- | --- | --- | --- | --- |
| Nc1ccc(O)c(C(=O)O)c1 [5-ASA, 5-aminosalicylic acid] | higher | approximately 20% | 46.2% | 50.3% | 48.9% | 67.6* % | 3.2% | 22.4% | 26.0% | 13-15% | approximately 30% | 7.3% | 9.4% | 13.3% | – | – | – |
| Cc1cn([C@H]2C[C@H](N=[N+]=[N-])[C@@H](CO)O2)c(=O)[nH]c1=O [AZT, zidovudine] | – | – | – | – | – | – | – | – | – | – | – | – | – | – | 80.0* % | 99.3* % | approximately 16% |
